One may read the inhibition as the change of the read-out against control, counted positive when it falls.

The record followed here is PubChem BioAssay AID624443 (The Scripps Research Institute Molecular Screening Center, 2012).

Activity calls are given as the source filed them.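 How the source made its calls: active means inhibition of 30% or more at 50 µM, though no compound was called active; inactive means inhibition below 30% at 50 µM.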

The test addresses Serine/threonine-protein phosphatase 2A catalytic subunit alpha isoform (Bos taurus) (UniProt P67774). The test is described as follows: PP2A phosphatase inhibition, late-stage follow-up, selectivity assay for PP5 inhibitor project, biochemical, bovine brain PP2A, 33P-phosphohistone, single concentration, round 5 (AID 624443). As to conditions: purified bovine PP2A, 33P-phosphohistone dephosphorylation, scintillation; at 50 µM; hits give high values.

Serine/threonine-protein phosphatase 2A catalytic subunit alpha isoform (Bos taurus), sequence (P67774 whole entry, looked up, canonical isoform): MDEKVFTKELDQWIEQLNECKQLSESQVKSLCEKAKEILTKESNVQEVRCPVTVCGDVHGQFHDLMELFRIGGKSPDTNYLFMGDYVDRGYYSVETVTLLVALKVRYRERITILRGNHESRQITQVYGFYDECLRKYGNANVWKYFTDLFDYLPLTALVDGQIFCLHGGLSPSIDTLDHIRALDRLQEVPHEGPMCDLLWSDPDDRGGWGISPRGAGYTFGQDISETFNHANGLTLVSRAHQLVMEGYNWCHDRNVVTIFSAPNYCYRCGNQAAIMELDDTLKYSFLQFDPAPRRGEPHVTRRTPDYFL

Consider `COc1cccc(-c2n[nH]nc2C(=O)O)c1`, for which the inhibition is 3.7% (inactive).

As to `O=C(O)c1n[nH]nc1-c1ccc(F)cc1`, the inhibition is -0.575% (inactive).

Turning to `O=C(O)c1n[nH]nc1-c1ccccc1O`, the inhibition is 0.275% (inactive).

Take `COc1ccccc1-c1n[nH]nc1C(=O)O`: the inhibition was 24.7% (inactive).

For the molecule `COc1ccc(-c2n[nH]nc2C(=O)O)cc1`, the inhibition is -5.38% (inactive).

As for `O=C(O)c1n[nH]nc1-c1ccccc1F`, the inhibition was 3.76% (inactive).

For `O=C(O)c1n[nH]nc1-c1cccc(F)c1`, the inhibition is 1.89% (inactive).
